Measured values: paper PMC12139422, “Structural basis for phosphatidylcholine synthesis by bacterial phospholipid N-methyltransferases” (The Journal of Biological Chemistry, 2025)

Assays:
AtPmtAΔN25 [1] = target: T1, AtPmtAΔN25 (Agrobacterium fabrum, UniProt A9CKE9); experiment: X-ray crystal structure ([…] Å); assay type: binding; conditions: cocrystallised with SAM at 10:1 ligand-to-protein, pH 8.0, 20 °C; density assigned to MTA as SAM cleavage product; SAM site
T1 construct: gene Atu0300; lacks residues 1-25 (N-terminal amphipathic helix); N-terminal His6-tag cut with HRV 3C protease; expressed in E. coli C43(DE3); full length 197 residues; four molecules in the asymmetric unit
T1 sequence (A9CKE9 26-197): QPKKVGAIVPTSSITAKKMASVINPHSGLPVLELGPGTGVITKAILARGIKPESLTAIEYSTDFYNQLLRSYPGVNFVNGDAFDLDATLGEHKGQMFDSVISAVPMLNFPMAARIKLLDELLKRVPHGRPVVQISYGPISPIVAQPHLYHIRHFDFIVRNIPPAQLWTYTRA

AtPmtAΔN25 [2] = target: T1, AtPmtAΔN25; experiment: X-ray crystal structure ([…] Å) and 1H-15N HSQC NMR titration; assay type: binding; conditions: cocrystallised at 10:1 ligand-to-protein, pH 8.0, 20 °C; NMR titration 0-10 equivalents, pH 7.0, 10 °C; SAM site (Gly-rich loop)

SMILES	X-ray crystal structure (2.04 Å) (AtPmtAΔN25 [1])	X-ray crystal structure (1.95 Å) and 1H-15N HSQC NMR titration (AtPmtAΔN25 [2])
CSC[C@H]1O[C@@H](n2cnc3c(N)ncnc32)[C@H](O)[C@@H]1O [5′-methylthioadenosine]	Therefore, we assigned the electron density to MTA	
Nc1ncnc2c1ncn2[C@@H]1O[C@H](CSCC[C@H](N)C(=O)O)[C@@H](O)[C@H]1O [SAH]		All four AtPmtAΔN25 molecules in the asymmetric unit contained SAH molecules with clear electron densities
